Reference: patent publication US20220039395A1, “INSECT CONTROL AGENTS” (priority 2018, published 2022)
Numbered stars: 1 amine (or outer) side, 2 acyl side, 3 side chain; on linkers, the order of the positions; unused ones are H or OH. Peptide text beside a SMILES is read from it. * marks the point of attachment. X1 = Brc1ccc2c(c1)-c1cc(N*)ccc1C2; Suc = O=C(CCC(=O)[*:2])[*:1]

What was measured:
Format in all cases: in vivo
Myzus persicae [1] = assay: Topical application by spraying, Potter Spray Tower; conditions: 3000 μl, 1×10^−5M of each peptide in ATPlus 0.1%, counted 48 hours post spray
Protocol: (§1) Aphids were exposed to test peptides in the absence of additional external stress conditions.
(§2) Brassica rapa (Chinese cabbage; Wong Bok) were infested with 30 adult Myzus persicae aphids per plant. Aphids were left at least 2 hours to settle and begin feeding from the host plant.
Spraying took place inside a designated spray room. To ensure spray tracking, all sprayed solutions had amaranth dye added.
Potter Spray Tower (Burkard Manufacturing) was ‘primed’ by spraying 1000 μl of liquid coating the inside of the tower. Two controls were used:
i) vehicle spray only (Croda ATPlus UEP 100 LQ-(CQ) 0.1% v/v); and ii) Imidacloprid positive control (28.3 μM).
Imidacloprid was always applied last and via a second, separate, Potter Tower, to prevent any possibility of stray pesticide being left inside the tower and contaminating a test peptide-applied plant.
Spray volumes for all solutions were 3000 μl. The 6.9 mm spray head was loaded with 3000 μl of a 1×10^−5M peptide solution diluted in ATPlus 0.1%. After spraying was completed the plant was allowed to rest on the spray platform for 30 seconds to allow settling of the sprayed chemical.
For this experiment there were three test conditions: 1895 alone (1×10^−5M); 2129 alone (1×10^−5M); and a simultaneous co-application of 1895+2129 together (1×10^−5M of each peptide).
Post peptide application, each condition was placed into its own individual Bugdorm (Watkins and Doncaster, 44545), to prevent repulsed or displaced aphids moving from one condition to another. Numbers of alive and dead aphids on the plant were counted 48 hours post spray, and the presence of any fresh nymphs noted. Plants were watered prior to spraying but not afterwards to eliminate the possibility of drowning any aphids present or washing off the sprayed liquid.
Post spraying, the spray head was filled with over 3000 μl of 70% ethanol and sprayed until empty. The spray head was carefully removed and rinsed with 70% ethanol as some amaranth dye was observed on the spray head. […]

Myzus persicae [2] = assay: Feeding of aphids with peptides in artificial diet; life span and fecundity; conditions: M. persicae on artificial diet containing the peptide; mean ± SE
Protocol: A standard artificial diet for M. persicae was produced as described in Van Emden (2009) and provided the basal diet to which neuropeptide analogues were added for screening purposes. Neuropeptide analogues were diluted individually in the artificial diet to a pre-determined recommended concentration as follows: 1895 (3.5×10^-5 M) and 2019 (2.0×10^-5 M). Feeding apparatus were constructed using a set-up developed by […] et al (2009). For this, a piece of Parafilm was stretched over a Plexiglas ring (h=4 cm, Ø=3 cm) and 100 μl of the artificial diet containing the desired neuropeptide analogue was pipette onto the Parafilm membrane. A second piece of Parafilm, stretched to 4 times the original thickness, was stretched over the original layer, sandwiching the artificial diet between two layers of Parafilm. A strip of Parafilm was wrapped around the circumference of the Plexiglas ring, sealing in the diet. A plastic ring (h=1.2 cm, Ø=3.4 cm) was subsequently placed over the Parafilm layer, creating a walled chamber in which to house test aphids in contact with the Parafilm layer containing the artificial diet. Finally, a small Petri dish (h=1 cm, Ø=3.6 cm), modified for ventilation with net cloth, was placed on top of each feeding apparatus to prevent aphid escape. To obtain aphids for use in experiments, reproducing anholocyclic adults were placed on individual excised leaves of Chinese cabbage at densities of 5 adults per leaf and allowed to reproduce for 24 h. The stem of each excised leaf was held within a 0.5 mL Eppendorf tube containing water via a punctured hole in the Eppendorf lid, and placed individually within a microcage (L=4 cm, Ø=9.5 cm). Following 24 h, adults were removed and resultant first instar nymphs (<1 day old and synchronised in age to within 24 h) retained. Nymphs were allowed to develop on the Chinese cabbage for 5 days. On day 5, (3rd instar) nymphs were transferred onto the artificial diet containing a neuropeptide analogue at densities of 1 per feeding chamber and monitored daily until death. Aphids were transferred to fresh artificial diet (containing neuropeptide analogue) every 5 days. Life history traits recorded include age at first reproduction, number of nymphs produced per 24 h period, and lifespan. From these parameters, lifetime fecundity and daily fecundity were calculated. Control groups were set up involving aphids reared on the host plant, an artificial diet without a neuropeptide analogue, and an artificial diet containing the native CAPA neuropeptide.

Myzus persicae [3] = assay: Topical application by spraying, air brush; conditions: 750 μl, 1×10^−5M of each peptide in Tween 24 0.1%, counted 48 hours post spray
Protocol: as §1, §2
Spraying took place inside an externally vented fume cupboard. […] To ensure spray tracking, all sprayed solutions had amaranth dye added, allowing the full surface of the plant to be evenly coated with the aerosolised compound.
The plants to be sprayed were placed inside a plastic disposal bag, inside the fume cupboard. This was used to control the area exposed to the aerosolised liquid, to avoid extensive spraying and cleaning inside the fume cupboard. The bag was further lined with absorbent paper towel to again help contain and control spray.
Each experiment had three controls:
i) no vehicle or peptide air spray only, negative control to assess effect of spraying on aphid ability to remain attached to the plant; ii) vehicle spray only (Tween 24 0.1%); and iii) Imidacloprid positive control (28.3 μM).
Imidacloprid was always applied last to prevent any possibility of stray pesticide being left inside the disposal bag and contaminating a test peptide applied plant.
Spray volumes for all solutions for this experiment 750 μl.
A clean air brush (ABEST AC06k30) was loaded with 750 μl of peptide solution diluted in […] 0.1% vehicle. For this experiment there were three test conditions: 1895 alone (1×10^−5M); 2129 alone (1×10^−5M); and a simultaneous co-application of 1895+2129 together (1×10^−5M of each peptide). During application, the air brush was held within the plastic bag and the compressor turned on. The air brush was then gently sprayed back and forth across the plant. […]
Post peptide application, each condition was placed into its own individual Bugdorm (Watkins and Doncaster, 44545), to prevent repulsed or displaced aphids moving from one condition to another. Numbers of alive and dead aphids on the plant were counted 48 hours post spray, and the presence of any fresh nymphs noted. […]

2Abf-Suc-FGPRL-NH2 [compound 1895]
% Lethality (Myzus persicae [1]): 34% | Age at 1st reproduction (Myzus persicae [2]): 11.5 ± 0.5 days | Ave. daily fecundity (Myzus persicae [2]): 1.1±0.1 nymphs | Days as reproducing adult (Myzus persicae [2]): 5.8 ± 1.8 | Life span (Myzus persicae [2]): 19.8 ± 2.5 days | Lifetime fecundity (Myzus persicae [2]): 6.4±2.0 nymphs | % Lethality (Myzus persicae [3]): 27%

CC[C@H](C)[C@H](NC(=O)[C@H](CCCNC(=N)N)NC(=O)[C@@H]1CCCN1C(=O)[C@@H](NC(=O)[C@H](C)NC(=O)CCC(=O)Nc1ccc2c(c1)-c1cc(Br)ccc1C2)[C@@H](C)O)C(N)=O [compound 2129, 2Abf-Suc-ATPRI-NH2] ({X1-Suc}-ATPRI-NH2)
% Lethality (Myzus persicae [1]): 32% | Age at 1st reproduction (Myzus persicae [2]): 12.4 ± 0.7 days | Ave. daily fecundity (Myzus persicae [2]): 1.2±0.1 nymphs | Days as reproducing adult (Myzus persicae [2]): 7.17 ± 1.5 | Life span (Myzus persicae [2]): 21.0 ± 2.3 days | Lifetime fecundity (Myzus persicae [2]): 8.8 ± 2.0 nymphs | % Lethality (Myzus persicae [3]): 30%
